Measurements from PMC7724566, “Prospects for Clinical Development of Stat5 Inhibitor IST5-002: High Transcriptomic Specificity in Prostate Cancer and Low Toxicity In Vivo” (Cancers, 2020).

Key:
C57BL/6j mice = assay: Sub-chronic toxicity study (10 days), plasma biochemistry; assay type: in vivo; details: daily i.p. 10 days; for A-G Ratio / ALT / AST / Albumin / Alk.Ptase / Bile Acid / Chol / TBIL / Globulin / BUN: plasma; for Globulin: in g/dL (unit assumed); for BUN: in mg/dL (unit assumed)
Description: The sub-chronic toxicity study (10 days) was carried out in C57BL/6J mice (8 weeks) (stock 000664) (n = 10/dose group 5 of each sex). IST5 was administered daily (0, 10, 30 and 100 mg/kg) via i.p. injection. Vehicle (0 mg/kg) group mice received a single i.p. injection of 0.3% hydroxypropyl cellulose. Plasma samples were analyzed for aspartate aminotransferase (AST), alanine aminotransferase (ALT), sorbitol dehydrogenase (SDH), alkaline phosphatase (ALP), γ-lutamyltransferase (GGT), lactate dehydrogenase (LDH), bilirubin (TBIL), protein (TP), glucose (GLU), blood urea nitrogen (BUN), creatinine (CREAT), and electrolytes (Na, K, Cl, Ca, CO2) (Marshfield Labs, WI, USA). A detailed hematological analysis was carried out on the sub-mandibular blood samples of mice collected at the end of the protocol and analyzed for white blood cells, red blood cells, hemoglobin, lymphocyte counts, monocytes, eosinophils and granulocytes. Brain, liver, heart, kidney and spleen were harvested, weighed and fixed in 10% buffered formalin and processed for histopathological analysis. In histopathological analysis, gross morphology and ultra-structural change were assessed. The clinical chemistry parameters measured were the same as those used for the acute toxicity study.

Stat5 = Stat5 phosphorylation in K562 cells (immunoblot); assay type: cell-based, human; details: 4 days
Description: In order to evaluate whether the phosphate group of IST5 is critical for IST5 activity in cell-based assays, we compared the potency of IST5 (Figure 4A) to that of IST5-M (IST5 without the phosphate group) (Figure 4B) in inhibiting phosphorylation of Stat5 in PC and CML cells. CML (K562) cells and PC (CWR22Rv1) cells were cultured for 4 days with increasing concentrations of IST5 and IST5-M (Figure 4C,D). […] Collectively, these finding indicate that IST5 and IST5-M have similar efficacies in inhibiting phosphorylation of Stat5 in both CML and PC cells.
Figure 4 IST5 and the IST5-derivative lacking the phosphate group (IST5-M), both, inhibit Stat5 phosphorylation in CML and prostate cancer cell line with high efficacy. (A), chemical structure of IST5-002 (IST5). (B), chemical structure of IST5-M (IST5 without the phosphate group. (C), IST5 and IST5-M both inhibit Stat5 phosphorylation in CML cells (K562) with high efficacy. K562 cells were treated with IST5 and IST5-M for 4 days at the concentrations indicated. Whole cell lysates (WCL) were immunoblotted with anti-pYStat5 mAb, anti-Stat5 mAb and anti-actin mAb as loading control. (D), IST5 and IST5-M, both, decrease Stat5 phosphorylation in PC cells (CWR22Rv1). CWR22Rv1 cells were treated with increasing concentrations of IST5 and IST5-M for 4 days. Stat5 was immunoprecipitated (IP) followed by immunoblotting (WB) with anti-pYStat5 mAb and anti-Stat5 mAb. Whole cell lysates (WCL) were immunoblotted with anti-actin mAb as loading control.
Cell pellets were solubilized in the lysis buffer (10 mM Tris-HCl (pH 7.6), 5 mM EDTA, 50 mM sodium chloride, 30 mM sodium pyrophosphate, 50 mM sodium fluoride, 1 mM sodium orthovanadate, 1% Triton X-100, 1 mM phenylmethylsulfonyl fluoride, 5 µg/mL aprotinin, 1 µg/mL pepstatin A and 2 µg/mL leupeptin), and protein concentrations of clarified cell lysates were determined by a simplified Bradford method (Bio-Rad, Hercules, CA, USA). The whole cell lysates were immunoprecipitated with polyclonal antibodies (Table S1) followed by incubation with protein A-Sepharose beads (GE Healthcare, Chicago, IL, USA). The cell lysates and immunoprecipitated proteins were separated on 4–12% SDS-PAGE (Life Technologies, Brown Deer, WI, USA) and transferred electrophoretically to polyvinylidene fluoride membrane (Millipore). For immunoblotting, blocking buffer was tris-buffered saline and tween 20 (TBST, 0.15 M NaCl; 0.1% Tween 20; 50 mM Tris, pH 8.0) with 3% bovine serum albumin (BSA). The immunoreaction with the specific antibodies (Table S1) was detected by horseradish peroxidase-conjugated secondary antibodies followed by enhanced chemiluminescence (GE Healthcare).

SMILES: O=P(O)(O)OCC1OC(n2cnc3c(NCc4ccccc4)ncnc32)C(O)C1O (centres unmarked) [IST5]
- BW (C57BL/6j mice; 10 mg/kg): 22.5 ± 1.1 gm
- HCT (C57BL/6j mice; 10 mg/kg): 0.43 ± 0.02 L/L
- A-G Ratio (C57BL/6j mice; 10 mg/kg): 1.93 ± 0.08
- ALT (C57BL/6j mice; 10 mg/kg): 50.4 ± 3.71 U/L
- AST (C57BL/6j mice; 10 mg/kg): 329.9 ± 30.9 U/L
- Albumin (C57BL/6j mice; 10 mg/kg): 2.69 ± 0.05 g/dL
- Alk.Ptase (C57BL/6j mice; 10 mg/kg): 51.3 ± 0.72 U/L
- Bile Acid (C57BL/6j mice; 10 mg/kg): 21.0 ± 12.7 µmol/dL
- Chol (C57BL/6j mice; 10 mg/kg): 65.0 ± 2.09 mg/dL
- TBIL (C57BL/6j mice; 10 mg/kg): 0.26 ± 0.02 mg/dL
- Globulin (C57BL/6j mice; 10 mg/kg): 1.41 ± 0.04
- BUN (C57BL/6j mice; 10 mg/kg): 20.5 ± 0.82
- BW (C57BL/6j mice; 30 mg/kg): 23.5 ± 0.6 gm
- HCT (C57BL/6j mice; 30 mg/kg): 0.45 ± 0.01 L/L
- A-G Ratio (C57BL/6j mice; 30 mg/kg): 1.9 ± 0.11
- ALT (C57BL/6j mice; 30 mg/kg): 45.2 ± 3.76 U/L
- AST (C57BL/6j mice; 30 mg/kg): 336 ± 57.1 U/L
- Albumin (C57BL/6j mice; 30 mg/kg): 2.74 ± 0.07 g/dL
- Alk.Ptase (C57BL/6j mice; 30 mg/kg): 53.0 ± 1.93 U/L
- Bile Acid (C57BL/6j mice; 30 mg/kg): 2.39 ± 0.32 µmol/dL
- Chol (C57BL/6j mice; 30 mg/kg): 70.3 ± 1.38 mg/dL
- TBIL (C57BL/6j mice; 30 mg/kg): 0.21 ± 0.01 mg/dL
- Globulin (C57BL/6j mice; 30 mg/kg): 1.47 ± 0.07
- BUN (C57BL/6j mice; 30 mg/kg): 25 ± 1.32
- inhibition of Stat5 phosphorylation (Stat5; 2 µM, K562 cells): 75–90%
- IC50 (Stat5; read-out: IC50, inhibition of Stat5 phosphorylation, K562 CML cells): ~1.1 µM
